Data reported in US8722867B2, “Gene therapy vectors and cytosine deaminases” (priority 2008, dated 2014).

System: TU-2449 tumors
Test: HPLC analysis of 5-FC and 5-FU in excised TU-2449 tumors
Format: in vivo, mice
Details: Groups 2 and 3: PBS instead of vector, 5-FC 250 or 500 mg/kg IP
Procedure: The study consisted of 6 groups of female mice (see Table below). All groups underwent intracranial administration into the right striatum of 1E4 TU-2449 cells administered/mouse on Day 0. At Day 4, all groups received intracranial/intratumoral administration of AC3-YCD2 (V) vector at 2.4E6 TU/5 ul (Lot#T511019) or PBS buffer control.
AC3-yCD2 (V) (5 μL) was infused at 0.33 μL per minute (15 minutes, followed by a hold of 5 minutes) intracranially at the same coordinates as TU-2449 cells were injected.
From each brain, tumors were isolated and trimmed if large enough for multiple analyses (more than 0.05 g). Tumors sections for HPLC analysis were crushed in a 1.5 mL centrifuge tube using a plunger from a 1 mL syringe. Crushed samples were mixed with 150 uL RIPA buffer and vortexed vigorously for 10 minutes. Samples were spun at 4° C. at 20000 rcf for 10 minutes. Supernatants were removed and mixed thoroughly with 150 uL of 10% trichloroacetic acid and spun as above. […] Data was expressed in relative milli absorbance units (mAU) of peak area from the chromatograms.

Question: Which “5-FC and 5-FU HPLC signals in tumor” value does the source give for `Nc1nc(=O)[nH]cc1F` [5-FC, 5-fluorocytosine] here?
Answer: detectable 5-FC signals but no signal for 5-FU
